In PubChem BioAssay (NCI):
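All cell lines were grown in 96-well plates and treated with compound for 48 hours. GI50 marks 50% less growth. At the TGI there is no net growth.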 Where a SMILES comes first, the peptide text is derived from it. [ ]: non-standard residue; d: D form. 2Nal = N[CH](Cc1ccc2ccccc2c1)C(=O)O

Legend:
Assay in all cases: NCI-60 cell line screen, 48 h
MALME-3M melanoma = test system: MALME-3M melanoma
HCC-2998 colon = test system: HCC-2998 colon
U251 CNS = test system: U251 CNS
SN12C renal = test system: SN12C renal
IGROV1 ovarian = test system: IGROV1 ovarian
RXF 393 renal = test system: RXF 393 renal
HCT-15 colon = test system: HCT-15 colon
HS 578T breast = test system: HS 578T breast
CAKI-1 renal = test system: CAKI-1 renal
MCF7 breast = test system: MCF7 breast

Row | Structure (SMILES) | TGI (MALME-3M melanoma) [µM] | TGI (HCC-2998 colon) [µM] | TGI (U251 CNS) [µM] | TGI (SN12C renal) [µM] | TGI (IGROV1 ovarian) [µM] | TGI (RXF 393 renal) [µM] | TGI (HCT-15 colon) [µM] | TGI (HS 578T breast) [µM] | TGI (CAKI-1 renal) [µM] | TGI (MCF7 breast) [µM] | GI50 (MALME-3M melanoma) [µM] | GI50 (HCC-2998 colon) [µM] | GI50 (U251 CNS) [µM] | GI50 (SN12C renal) [µM] | GI50 (IGROV1 ovarian) [µM] | GI50 (RXF 393 renal) [µM] | GI50 (HCT-15 colon) [µM] | GI50 (HS 578T breast) [µM] | GI50 (CAKI-1 renal) [µM] | GI50 (MCF7 breast) [µM]
1 | COC(=O)C1=C(C(=O)OC)C2OC1c1cc3ccccc3cc12 | 6 | 23.4 | 32.7 | 30.8 | 9.58 | 3.29 | 8.09 | 43.6 | 4.26 | 59.9 | – | – | – | – | – | – | – | – | – | –
2 | CCOC(=O)c1cc(-c2ccc(OC)c(OC)c2)[nH]c1N/N=C/c1c(Cl)cccc1Cl | 16.7 | 4.38 | 18.2 | 22.3 | 30.4 | 9.77 | 10.7 | 18.8 | 11.4 | 17.8 | 2.88 | 0.668 | 2.15 | 3.64 | 2.45 | 1.91 | 2.38 | 2.71 | 1.59 | 0.415
3 | CC1CCc2c(c(CC3CC(=O)NC(=O)C3)nn2-c2ccccc2)C1 (stereo not drawn) | > 100 | > 100 | > 100 | > 100 | > 100 | > 100 | > 100 | > 100 | > 100 | > 100 | – | – | – | – | – | – | – | – | – | –
4 | C=C1C(=O)OC2CC3(C)CCCC(C)C3=CC12 (stereo not drawn) | 16.7 | 16.2 | 22.2 | 12.2 | 22.4 | – | 5.08 | 36.6 | 9.27 | 5.28 | – | – | – | – | – | – | – | – | – | –
5 | CC(O)CN1c2ccccc2Sc2ccc(Cl)cc21 (stereo not drawn) | > 10 | > 10 | > 10 | > 10 | > 10 | > 10 | > 10 | > 10 | > 10 | > 10 | – | – | – | – | – | – | – | – | – | –
6 | O=C(Nc1nc(-c2ccc(Cl)cc2)nc2c1sc(=S)n2-c1ccccc1)C(F)(F)F | 7.08 | > 100 | 9.87 | 45.3 | 14.3 | 5.01 | > 100 | 9.7 | 16 | > 100 | 2.89 | 10.3 | 3.23 | 11.3 | 3.9 | 2.36 | 6.46 | 3.37 | 4 | 10.2
7 | C=C1CCC2C3(C)COC(c4ccc(Cl)cc4)OC3CCC2(C)C1/C=C/C1=CCOC1=O (stereo not drawn) | 71.4 | > 100 | 46.2 | > 100 | > 100 | 58.2 | > 100 | 42.5 | > 100 | > 100 | 11.3 | 6.73 | 5.68 | 7.56 | 50 | 12 | 4.79 | 11.5 | 6.87 | 3.35
8 | CC1=NN(C(=O)c2ccncc2)C(=O)C1N=Nc1ccc2ccccc2c1 (stereo not drawn) | > 100 | 15.2 | > 100 | > 100 | > 100 | > 100 | > 100 | > 100 | > 100 | > 100 | – | – | – | – | – | – | – | – | – | –
9 | C/C=C(/C)C(=O)OC1C=C(CO)C(=O)C(OC(=O)C(C)(O)C(C)Cl)C1C(C)C (stereo not drawn) | 1.85 | 3.35 | 2.8 | 2.11 | – | 3.13 | 2.36 | 24.4 | 2.98 | 3.09 | 0.474 | 1.79 | 1.38 | 0.731 | – | 1.6 | 0.772 | 4.78 | 1.61 | 0.552
10 | CSc1ccc(C2=NN(C(C)=O)C(c3ccc(F)cc3)C2)cc1 (stereo not drawn) | 31.3 | 49.8 | 21.4 | 12.6 | 34.8 | 34.6 | > 100 | 49.7 | 42.2 | 41.3 | 15.8 | 20.4 | 5.96 | 1.23 | 7.73 | 18.5 | 19.9 | 20.8 | 12.9 | 17.2
11 | CC(C)C(NC(=O)C(CCCCN)NC(=O)C(Cc1c[nH]c2ccccc12)NC(=O)C(Cc1ccc(O)cc1)NC(=O)C(CS)NC(=O)C(N)Cc1ccc2ccccc2c1)C(=O)NC(CS)C(=O)NC(C(N)=O)C(C)O (stereo not drawn) (H-[2Nal]CYWKVCT-NH2; configuration not given here) | > 12.5 | > 100 | > 100 | > 100 | > 100 | > 100 | > 100 | > 12.5 | > 100 | > 12.5 | – | > 100 | > 100 | > 100 | > 100 | > 100 | > 100 | – | > 100 | –
12 | COc1ccc(/C=C2\CC(C)CC3C2=NN(c2ccccc2)C3c2ccc(OC)c(OC)c2)cc1OC (stereo not drawn) | > 100 | 3.13 | 15.3 | 14.5 | > 100 | > 100 | 4.38 | > 100 | > 100 | 42.6 | 8.64 | 1.69 | 3.92 | 3.45 | 5.37 | > 100 | 1.98 | > 100 | 6.47 | 3.23
13 | CC[C@@H](C)Nc1cc(C(=O)NC2CC3CCC(C2)N3c2ccc(C(=O)C3CC3)cn2)c(C)cc1C(N)=O (stereo partly drawn) | > 75.5 | 13.5 | > 100 | > 100 | > 100 | > 100 | > 100 | > 100 | > 100 | > 59.6 | 0.0383 | 0.0395 | 0.0669 | 0.052 | 0.0436 | 0.0516 | 0.0317 | 0.186 | 0.0597 | < 0.0172
14 | CC(C)(C)NC/C(=C\c1ccccc1)C(=O)c1ccccc1 | 4.88 | 3.35 | 6.41 | 6.34 | 8.99 | 2.37 | 7.16 | 60.7 | 6.36 | 10.4 | 2.04 | 1.74 | 2.3 | 1.95 | 2.78 | – | 1.56 | 6.11 | 1.88 | 1.08
